Patent US10125135B2, “Chemical compounds” (AstraZeneca AB, priority 2016, dated 2018)
≈ marks a conversion by molar mass, not a printed value.

Legend:
[1] = molecular target: estrogen receptor (ERα) in CAMA-1 human breast cancer cell line (Homo sapiens (Human), UniProt P03372); assay: Western blotting assay, CAMA-1 cells; assay type: cell-based; conditions: 100 nM compound, 48 h; normalised to vehicle (0%) and 100 nM fulvestrant (100%)
Description: (§1) The ability of compounds to down-regulate estrogen receptor (ER) was assessed by western blotting using human breast cancer cell lines (MCF-7 and CAMA-1). Cells were plated into 12-well tissue culture-treated plates at 0.5×10^6/well in phenol red-free RPMI containing 2 mM L-glutamine and 5% (v/v) charcoal treated foetal calf serum (F6765, Sigma). Cells were incubated with compounds (100 nM) or vehicle control (0.1% DMSO) for 48 h at 37° C., 5% CO2 before washing once with PBS and lysing with 80 μl lysis buffer (25 mM Tris/HCl, 3 mM EDTA, 3 mM EGTA, 50 mM NaF, 2 mM sodium orthovanadate, 0.27 M sucrose, 10 mM β-glycerophosphate, 5 mM sodium pyrophosphate, 0.5% TritonX-100, pH 6.8) on ice.
(§2) Cells were scraped, sonicated and centrifuged prior to performing a protein assay (DC Bio-Rad Protein kit, 500-0116) and making samples to a protein concentration of 1-2 mg/m1 in lysis buffer containing 1× LDS Sample Buffer (NP0007, Invitrogen) and 1× NuPAGE sample reducing agent (NP0009, Invitrogen). Samples were boiled for 10 min at 95° C. and then frozen at −20° C. until ready for use.
(§3) 10-20 μg protein was loaded onto 26-well Criterion gels (BioRad 345-0034). Gels were run at 125 V for 1 hr 25 min in running buffer (24 mM Tris Base Sigma, 192 mM Glycine, 3.5 mM SDS, made up in distilled water). Gels were then transferred at 30V for 2 hr in transfer buffer (25 mM Tris, 192 mM Glycine, 20% (v/v) methanol, pH 8.3, made up in distilled water) onto nitrocellulose membrane. The blot was stained with Ponceau S (P7170, Sigma) and cut according to appropriate molecular weight markers.
(§4) Membranes were blocked for 1 hour at room temp in 5% Marvel (w/v) in phosphate-buffered saline containing 0.05% Tween™ 20 (PBS/Tween). Blots were then incubated with anti-ERα (SP1) rabbit monoclonal antibody (Thermofisher) diluted 1:1000 at 4° C. overnight (with gentle shaking) followed by several washes with PBS/Tween. Secondary anti-rabbit HRP antibody (7074, CST) diluted 1:2000 dilution was incubated for 2 h at room temperature (with gentle shaking) followed by several washes with PBS/Tween. All antibodies were made up in 5% Marvel (w/v) in PBS/Tween.
(§5) The immunoblots were developed using Pierce WestDura chemiluminescent reagents (Thermo Scientific 34076) and developed/quantified on the G-box using Syngene software. Down-regulation of the ERα receptor was normalised to the vehicle control (0% down-regulation) and the 100 nM fulvestrant control (100% down-regulation) run within the same gel.

[2] = logD shake flask, 1-octanol/aqueous buffer; assay type: physicochemical; conditions: pH 7.4
Text: The lipophilicity of a drug is an important physical property which may influence many biological and metabolic properties of a compound. The distribution coefficient between 1-octanol and aqueous buffer, Log DO/W, at pH 7.4, is the most commonly used measurement of the lipophilicity of a compound. The current method for measurement of Log DO/W is based on the traditional shake flask technique, but with the modification of measuring compounds in mixtures of ten at a time using UPLC with quantitative mass spectrometry (MS) as a method to measure the relative octanol and aqueous concentrations. […] An additional QC sample Caffeine, with low Log D, are used and randomly placed in all runs. The method has been thoroughly validated against the previous shake flask methodologies.

[3] = molecular target: ERα receptor in MCF-7 human ductal carcinoma breast cell line (Homo sapiens (Human), UniProt P03372); assay: MCF-7 ER down regulation assay (immuno-fluorescence); assay type: cell-based; conditions: MCF-7 cells, 18-22 hours incubation; read-out: ER down regulation IC50 value
Chain of ERα receptor in MCF-7 human ductal carcinoma breast cell line (P03372 whole entry): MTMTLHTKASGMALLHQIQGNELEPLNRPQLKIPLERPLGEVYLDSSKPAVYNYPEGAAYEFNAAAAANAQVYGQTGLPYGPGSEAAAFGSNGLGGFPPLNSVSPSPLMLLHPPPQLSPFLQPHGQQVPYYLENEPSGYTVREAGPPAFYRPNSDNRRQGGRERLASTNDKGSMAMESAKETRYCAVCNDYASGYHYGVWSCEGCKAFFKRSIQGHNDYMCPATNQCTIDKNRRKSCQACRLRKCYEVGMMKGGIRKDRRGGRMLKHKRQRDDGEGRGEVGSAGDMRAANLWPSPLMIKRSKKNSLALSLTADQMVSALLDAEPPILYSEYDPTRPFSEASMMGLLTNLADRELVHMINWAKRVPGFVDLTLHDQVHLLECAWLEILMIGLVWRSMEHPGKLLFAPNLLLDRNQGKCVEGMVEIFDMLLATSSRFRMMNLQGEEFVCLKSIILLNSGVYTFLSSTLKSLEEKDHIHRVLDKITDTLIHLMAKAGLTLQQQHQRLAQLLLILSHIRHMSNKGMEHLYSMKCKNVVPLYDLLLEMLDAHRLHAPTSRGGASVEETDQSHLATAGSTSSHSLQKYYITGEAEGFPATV

[4] = molecular target: estrogen receptor (ERα) in MCF-7 human breast cancer cell line (Homo sapiens (Human), UniProt P03372); assay: Western blotting assay, MCF-7 cells; assay type: cell-based; conditions: 100 nM compound, 48 h; normalised to vehicle (0%) and 100 nM fulvestrant (100%)
Chain of estrogen receptor (ERα) in MCF-7 human breast cancer cell line (P03372 whole entry): as above
Description: as §1, §2, §3, §4, §5

[5] = Thermodynamic solubility, shake-flask; assay type: physicochemical; conditions: thermodynamic from solid; aqueous phosphate buffer pH 7.4, 24 hours at 25° C.
Description: The thermodynamic solubility of a research compound is measured under standard conditions. It is a shake-flask approach that uses 10 mM DMSO solutions which are supplied from the Compound Managements liquid store and is a high throughput method. The dried compounds are equilibrated in an aqueous phosphate buffer (pH 7.4) for 24 hours at 25° C., the portion with the dissolved compound is then separated from the remains. The solutions are analyzed and quantified using UPLC/MS/MS, QC-samples are incorporated in each assay-run to ensure the quality of the assay.

[6] = Human plasma protein binding, equilibrium dialysis (RED); assay type: in vitro ADME; conditions: dialysis for 18 hours
Description: Human Plasma Protein Binding
The automated equilibrium dialysis assay in human plasma uses the RED (Rapid Equilibrium Dialysis) Device and sample handling. The assay generally runs over two to three days including delivery of results. After dialysis for 18 hours, plasma and buffer samples are prepared for analysis by liquid chromatography and mass spectrometry. Samples are generally tested in singlicates and quantified by LC/MSMS by using a 7-point calibration curve in plasma. The compounds are pooled together in plasma pools up to 10 compounds. Three reference compounds are used in each run, Propranolol, Metoprolol and Warfarin. Warfarin is used as a control in each pool and Propranolol and Metoprolol are placed randomly in each run. An in-house Excel macro is used for preparation of files for the robot and the mass spectrometer and also used for the calculations of fraction unbound (fu %) in plasma.

[7] = molecular target: ERα receptor (Homo sapiens (Human), UniProt P03372); conditions: 500mg monthly dose; cited from earlier work
Chain of ERα receptor (P03372 whole entry): as above

Chain of estrogen receptor (ERα) in CAMA-1 human breast cancer cell line (P03372 whole entry): as above

CAMA1 Western % ER deg vs Fv [1] [%] | logD [2] | DC50 [3] [nM] | MCF7 Western % ER deg vs Fv [4] [%] | solubility at 24 h [5] [µM] | Human plasma protein binding (% free) [6] [% free] | SMILES | turnover of the receptor in patient samples [7]
66 | 2.4 | 0.51 | 87 | 811 (≈ 408 µg/mL) | 27 | COCC(F)(F)CN1[C@H](c2ccc(OCCN3CC(CF)C3)cn2)c2ccc3[nH]ncc3c2C[C@H]1C [Example 10, (6S,8R)-7-(2,2-difluoro-3-methoxypropyl)-6-(5-(2-(3-(fluoromethyl)azetidin-1-yl)ethoxy)pyridin-2-yl)-8-methyl-6,7,8,9-tetrahydro-3H-pyrazolo[4,3-f]isoquinoline] | 
 |  |  |  |  |  | C[C@]12CC[C@@H]3c4ccc(O)cc4C[C@@H](CCCCCCCCC[S+]([O-])CCCC(F)(F)C(F)(F)F)[C@H]3[C@@H]1CC[C@@H]2O (stereo partly shown) [Fulvestrant, fulvestrant] | less than 50%
95 | 3.4 | 0.085 | 100 | 364 (≈ 178 µg/mL) | 11 | COc1cc(OCCN2CC(CF)C2)ccc1[C@@H]1c2ccc3[nH]ncc3c2C[C@@H](C)N1CC(F)F [Example 7, (6S,8R)-7-(2,2-difluoroethyl)-6-(4-(2-(3-(fluoromethyl)azetidin-1-yl)ethoxy)-2-methoxyphenyl)-8-methyl-6,7,8,9-tetrahydro-3H-pyrazolo[4,3-f]isoquinoline] | 
